Reference: patent publication US10292394B2, “Herbicidal compounds” (Syngenta Participations AG, priority 2015, dated 2019)

Assays:
Experiment in all cases: Post-emergence efficacy, glasshouse pot test
Format in all cases: in vivo
Details in all cases: post-emergence application, evaluated after 13 days
Lolium perenne (LOLPE) = system: Lolium perenne (LOLPE)
Protocol: (§1) B1 Post-Emergence Efficacy Seeds of a variety of test species are sown in standard soil in pots:—Solanum nigrum (SOLNI), Amaranthus retoflexus (AMARE), Setaria faberi (SETFA), Alopecurus myosuroides (ALOMY), Echinochloa crus-galli (ECHCG), Ipomoea hederacea (IPOHE), Lolium perenne (LOLPE). After 8 days cultivation (post-emergence) under controlled conditions in a glasshouse (at 24/16° C., day/night; 14 hours light; 65% humidity), the plants are sprayed with an aqueous spray solution derived from the formulation of the technical active ingredient in acetone/water (50:50) solution containing 0.5% Tween 20 (polyoxyethylene sorbitan monolaurate, CAS RN 9005-64-5). Compounds are applied at 1000 g/ha and 250 g/ha. The test plants are then grown in a glasshouse under controlled conditions in a glasshouse (at 24/16° C., day/night; 14 hours light; 65% humidity) and watered twice daily. After 13 days, the test is evaluated for the percentage damage caused to the plant. The biological activities are assessed on a five point scale (5=80-100%; 4=60-79%; 3=40-59%; 2=20-39%; 1=0-19%).

[1] = system: Amaranthus retoflexus (AMARE)
Protocol: as §1

[2] = system: Ipomoea hederacea (IPOHE)
Protocol: as §1

Setaria faberi (SETFA) = system: Setaria faberi (SETFA)
Protocol: as §1

[3] = system: Echinochloa crus-galli (ECHCG)
Protocol: as §1

Solanum nigrum (SOLNI) = system: Solanum nigrum (SOLNI)
Protocol: as §1

Row | SMILES | percentage damage caused to the plant, five point scale, LOLPE (Lolium perenne (LOLPE); 250 g/ha) | percentage damage caused to the plant, five point scale, LOLPE (Lolium perenne (LOLPE); 1000 g/ha) | percentage damage caused to the plant, five point scale, AMARE ([1]; 250 g/ha) | percentage damage caused to the plant, five point scale, AMARE ([1]; 1000 g/ha) | percentage damage caused to the plant, five point scale, IPOHE ([2]; 250 g/ha) | percentage damage caused to the plant, five point scale, IPOHE ([2]; 1000 g/ha) | percentage damage caused to the plant, five point scale, SETFA (Setaria faberi (SETFA); 250 g/ha) | percentage damage caused to the plant, five point scale, SETFA (Setaria faberi (SETFA); 1000 g/ha) | percentage damage caused to the plant, five point scale, ECHCG ([3]; 250 g/ha) | percentage damage caused to the plant, five point scale, ECHCG ([3]; 1000 g/ha) | percentage damage caused to the plant, five point scale, SOLNI (Solanum nigrum (SOLNI); 250 g/ha) | percentage damage caused to the plant, five point scale, SOLNI (Solanum nigrum (SOLNI); 1000 g/ha)
1 | C#CCn1c(=O)c(-c2c(Cl)ccc(Cl)c2OCc2cnc(Cl)s2)c(O)c2cccnc21 [Compound 1.19] | 5 (5=80-100%) | 5 (5=80-100%) | 4 (4=60-79%) | 5 (5=80-100%) | 5 (5=80-100%) | 5 (5=80-100%) | 4 (4=60-79%) | 5 (5=80-100%) | 3 (3=40-59%) | 5 (5=80-100%) | 5 (5=80-100%) | 5 (5=80-100%)
2 | C#CCn1c(=O)c(-c2c(Cl)ccc(Cl)c2OCc2cnc(Cl)s2)c(O)c2nccnc21 [Compound 9.19, 7-[3,6-dichloro-2-[(2-chlorothiazol-5-yl)methoxy]phenyl]-8-hydroxy-5-prop-2-ynyl-pyrido[2,3-b]pyrazin-6-one] | 5 (5=80-100%) | 5 (5=80-100%) | 5 (5=80-100%) | 5 (5=80-100%) | 5 (5=80-100%) | 5 (5=80-100%) | 5 (5=80-100%) | 5 (5=80-100%) | 5 (5=80-100%) | 5 (5=80-100%) | 5 (5=80-100%) | 5 (5=80-100%)
3 | C#CCn1c(=O)c(-c2c(Cl)ccc(Cl)c2OCc2cnc(Cl)s2)c(O)c2c(OC)ccnc21 [Compound 17.19] | 4 (4=60-79%) | 5 (5=80-100%) | 5 (5=80-100%) | 5 (5=80-100%) | 5 (5=80-100%) | 5 (5=80-100%) | 5 (5=80-100%) | 5 (5=80-100%) | 5 (5=80-100%) | 5 (5=80-100%) | 5 (5=80-100%) | 5 (5=80-100%)
4 | O=c1c(-c2c(Cl)ccc(Cl)c2OCc2cnc(Cl)s2)c(O)c2cccnc2n1CC(F)F [Compound 3.19] | 4 (4=60-79%) | 5 (5=80-100%) | 5 (5=80-100%) | 5 (5=80-100%) | 5 (5=80-100%) | 5 (5=80-100%) | 4 (4=60-79%) | 5 (5=80-100%) | 3 (3=40-59%) | 4 (4=60-79%) | 5 (5=80-100%) | 5 (5=80-100%)
5 | O=c1c(-c2c(Cl)ccc(Cl)c2OCc2cnc(Cl)s2)c(O)c2nccnc2n1CC(F)F [Compound 11.19] | 5 (5=80-100%) | 5 (5=80-100%) | 5 (5=80-100%) | 5 (5=80-100%) | 5 (5=80-100%) | 5 (5=80-100%) | 4 (4=60-79%) | 5 (5=80-100%) | 5 (5=80-100%) | 4 (4=60-79%) | 5 (5=80-100%) | 5 (5=80-100%)
6 | COc1ccnc2c1c(O)c(-c1c(Cl)ccc(Cl)c1OCc1cnc(Cl)s1)c(=O)n2CC(F)F [Compound 19.19] | 4 (4=60-79%) | 5 (5=80-100%) | 5 (5=80-100%) | 5 (5=80-100%) | 5 (5=80-100%) | 5 (5=80-100%) | 5 (5=80-100%) | 5 (5=80-100%) | 5 (5=80-100%) | 5 (5=80-100%) | 5 (5=80-100%) | 5 (5=80-100%)
